“Also recorded” adds a separate entry of the source. Where two headings read alike, the source gives them in different places. Peptide text beside a SMILES is read from it. * marks the point of attachment. 5FAM = O=C1OC2(c3ccc(O)cc3Oc3cc(O)ccc32)c2ccc(C(=O)*)cc21; FAM = 5(6)-carboxyfluorescein; Ahx = NCCCCCC(=O)O

Data set [1] concerns Huntington's disease subjects. Particulars: human, in vivo; cited from earlier work.
In the next data set the target is human LRP1 (Homo sapiens, UniProt Q07954). Description: Surface plasmon resonance analysis. Particulars: SPR. The data set is classed as binding. On the procedure:
Whether Cerepep (SRRVISRAKLAAAL (SEQ ID NO:9)) binds to human LRP1 purified from placenta was tested using surface plasmon resonance analysis. […] Furthermore, binding of CP-neutravidin complex to LRP1 is inhibited by RAP and EDTA, as can be expected with LRP1 ligands.
To determine which amino acid positions are important for brain homing of SERVISRAKLAAAL (SEQ ID NO:9), a pool of peptide-phage clones was compiled, where every amino acid position was one-by-one changed to alanine (alanines were changed to leucines). The peptide-phages were mixed in equimolar ratio, the Cerepep phage was included as a positive control and insertless as a negative control. The phage mix was injected into mice and following a 1 h circulation the amount of different phage clones in the brain was determined using HTS. […] Surface plasmon resonance analysis with human LRP-1 immobilized on a BIAcore sensor chip was used to assess whether CP-neutravidin complex directly interacts with human LRP-1. Angiopep-2-neutravidin complex was used as a positive control (FIGS. 7A-7B).
On the technique in general: SPR reads the build-up and loss of mass on a sensor chip optically.

The test system of data set [2] is Neuro2A cells. Description: In vitro FAM-peptide binding and uptake. The note with it: 30 μM, 1 h, 4 °C (binding) or 37 °C (uptake). The data set is classed as cell-based, mouse. The procedure: To assess the binding and uptake of Cerepep peptide, Neuro2A were cultured in 24-well plates on polylysine coated glass coverslips until 80-90% confluency. FAM-Cerepep (FAM-Ahx-SRRVISRAKLAAAL-OH (SEQ ID NO:9)) or control FAM-RPAR (FAM-RPARPAR-OH (SEQ ID NO:74)) peptide with the final concentration of 30 µM was added to Neuro2A cells in growth media and incubated at 4 °C (to study the binding) or 37 °C (to study the uptake) for 1 h. The cells were washed 4 times with growth media and fixed in methanol. The samples were stained with anti-fluorescein antibody to enhance the FAM signal. The fixed cells were first blocked with PBST (PBS+0.05% Tween 20), 5% BSA, 5% goat serum at RT for 30 min, followed by incubation with rabbit anti-fluorescein IgG (cat. no. A889, Thermo Fisher Scientific, MA, USA) at 4 °C for O/N and Alexa 647 goat anti-rabbit IgG secondary antibody at RT for 1h. Nuclei were counterstained with DAPI at 1 μg/ml. The coverslips were mounted on glass slides with Fluoromount-G (Electron Microscopy Sciences, PA, USA), imaged using confocal microscopy (Olympus FV1200MPE, Tokyo, Japan) and analyzed using the FV10-ASW4.2 software.
The binding (at 4 °C) and uptake (at 37 °C) of synthetic FAM-Cerepep by Neuro2A cells was also studied, comparing it to a control FAM-RPAR peptide which has a similar charge.

For the next data set, the system named is mouse brain. Kind of data set: FAM-Cerepep brain distribution. It counts as in vivo. Particulars: 100 μl of 2 mM i.v., 2.5 h circulation. The procedure: To assess the ability of FAM-conjugated to Cerepep to traverse the BBB, 100 μl of 2 mM FAM-Cerepep or FAM-scrambled Control peptide (SARVISRAKLARAL (SEQ ID NO:70)) was injected into the tail vein of mice n=3. After 2.5 h of circulation, the animals were anesthetized and perfused, the brains were collected, cryosected, fixed, permeabilized, and incubated with CD31-rat and anti-fluorescein-rabbit primary antibodies at room temperature for 2 hours. After washes, sections were incubated with Alexa Fluor […] anti-rat and Alexa Fluor 647 anti-rabbit secondary antibodies, washed and stained with DAPI. Images were taken using a confocal microscope in 4 different areas of the brain (cortex, cerebellum, hippocampus, brainstem).
To quantify FAM-Cerepep in different regions of the brain, expts were set up to assess fluorescence intensity. Briefly, 100 μl of 2 mM FAM-Cerepep or FAM-scrambled peptide (SARVISRAKLARAL (SEQ ID NO:70)) was injected into the tail vein of mice n=3. […] Images were taken under a confocal microscope in 4 different areas of the brain (cortex, cerebellum, hippocampus, brainstem), and fluorescence intensity in each brain region was measured and quantified using ImageJ, as depicted in FIGS. 22A-22E.

Another data set concerns mature neurons. Description: FAM-Cerepep colocalization with mature neurons. The data set is classed as in vivo, mouse. Particulars: 100 μl of 2 mM i.v., 2.5 h. On the procedure:
(§1) To assess the ability of FAM-conjugated to Cerepep to colocalize with mature neurons, 100 μl of 2 mM FAM-Cerepep or FAM-scramble (SARVISRAKLARAL (SEQ ID NO: 70)) was injected into the tail vein of mice n=3. After 2.5 h of circulation, the animals were anesthetized and perfused, the brains were collected, cryosected, fixed, permeabilized, and incubated with NeuN-mouse and anti-fluorescein-rabbit primary antibodies for 2 hours at room temperature. After washes, sections were incubated with Alexa Fluor […] anti-mouse and Alexa Fluor 647 anti-rabbit secondary antibodies, sections were washed and stained with DAPI. Pictures were taken under a confocal microscope in 4 different areas of the brain (cortex, cerebellum, hippocampus, brainstem).

A further data set has as its system astrocytes. Kind of data set: FAM-Cerepep colocalization with astrocytes. The note with it: 100 μl of 2 mM i.v., 2.5 h. It counts as in vivo, mouse. The procedure: as §1, with “astrocytes,” for “mature neurons,”, “NO:70))” for “NO: 70))”, “GFAP-rat” for “NeuN-mouse”, “anti-rat” for “anti-mouse”
The next data set concerns microglia. Description: FAM-Cerepep colocalization with microglia. It counts as in vivo, mouse. Particulars: 100 μl of 2 mM i.v., 2.5 h. On the procedure: To assess the ability of FAM-conjugated to Cerepep to colocalize with microglia, 100 μl of 2 mM FAM-Cerepep or FAM-scramble (SARVISRAKLARAL (SEQ ID NO: 70)) was injected into the tail vein of mice n=3. After 2.5 h of circulation, the animals were anesthetized and perfused, the brains were collected, cryosected, fixed, permeabilized, and incubated with CD11b-rat and anti-fluorescein-rabbit primary antibodies at room temperature for 2 hours. After washes, sections were incubated with Alexa Fluor […] anti-rat and Alexa Fluor 647 anti-rabbit secondary antibodies, sections were washed and stained with DAPI. Pictures were taken under a confocal microscope in 4 different areas of the brain (cortex, cerebellum, hippocampus, brainstem).

In the next data set the test system is ADHD / ASD subjects. Particulars: cited from earlier work.
Data set [3] has as its system GBM and normal brain parenchyma. Description: Synthetic peptide homing in glioma-bearing mice (IHC). It counts as in vivo, mouse. The note with it: synthetic peptide i.v., 1 h; WT-GBM and VEGFko GBM-bearing mice. The procedure:
CVGTNCY (SEQ ID NO:2) peptide-phage or control phage were injected iv into mice, after one hour circulation animals were perfused with 20 ml PBS, organs were collected, weighed, and dropped to 1% NP40-LB solution. Organs were homogenized and titer of each tissue was determined. FAM-labeled peptides (2 mM of peptide in PBS) were injected intravenously and 3 hours later the animals were perfused with 20 mL of PBS. The organs were excised, snap-frozen in the vapor of liquid nitrogen, and stored at −80 °C. For confocal microscopy, the tissues were sectioned at 15 μm and stained with antibodies and DAPI.
Cryosections (15 μm) on Superfrost Plus slides were fixed in cold methanol, washed in PBS, treated with 3% hydrogen peroxide, and blocked in PBS containing 0.05% Tween-20, 5% BSA, and 5% goat serum (GE Healthcare, UK) for 1 h. The sections were immunostained with rabbit anti-fluorescein (cat #A889, Thermo Fisher Scientific, MA, USA) antibody overnight at +4 °C. […] Sections were imaged with Leica Aperio VERSA microscope slide scanner. Imaged were processed with Aperio Image Scope (v12.4.3.5008).
The synthetic CVGTNCY (SEQ ID NO:2) peptide or scrambled CVGTNCY (SEQ ID NO:2) homing in WT-GBM and VEGFko GBM-bearing mice was analyzed after i.v. injection and perfusion of the animals. Cryosections of glioma-bearing brains were stained with anti-FAM antibody and tyramide amplification kit to enhance the signal of the peptide.
To assess homing of CVG peptide in glioblastoma, CVGTNCY (SEQ ID NO:2) peptide-phage was injected iv into mice bearing either WT-GBM, VEGFko, U87MG or NCH421k GBM, and to mice without a tumor. At one hour time point mice were perfused, brains and control organs collected and titered. […] (FIGS. 17A-17B) Distribution of CVG peptide in GBM and brain parenchyma was also assessed. CVGTNCY (SEQ ID NO:2) peptide or its scrambled version (CVYTCNG; (SEQ ID NO: 68)) was injected iv into glioma bearing mice, after 1 hour circulation mice were perfused and tissues of interest snap-frozen in liquid nitrogen.

The test system of another data set is P3 human stem cells. Description: Inhibition of AgNP-Cerepep binding (FACS). It counts as cell-based. Particulars: 4 °C, 1 h. On the procedure: Briefly, P3 human stem cells were incubated with the indicated antibody (AB) or RAP (diluted in 20% of glycerol) at 4 °C for 1 h, after cells were exposed to AgNP-control or AgNP-Cerepep for 1 h at 4 °C, then the cells were analyzed by FACS.

A further data set deals with ALS subjects. Particulars: human, in vivo, cited from earlier work.
The test system of data set [4] is Neuro2A cells. Kind of data set: Effect of endocytic inhibitors on CP-AgNP uptake (flow cytometry). It counts as cell-based, mouse. The note with it: inhibitor 30 min at 37 °C: nystatin 50 μM, cytochalasin D 4 μM, chlorpromazine 30 μM. On the procedure: […] The CP-AgNPs or control biotin-AgNPs were then added, and the cells were incubated at 37 °C for 1h, treated with an etching solution to remove accessible surface-bound AgNPs and subsequently washed with DPBS. The fluorescence of the labeled AgNPs was detected using the BD Accuri flow cytometer by monitoring the 555 nm channel FL2 and analyzed using FCS Express 7 software.
To study how treatment with endocytic inhibitors (nystatin, EIPA, cytochalasin D and chlorpromazine) affects the uptake of CP-AgNPs in Neuro2A cells, flow cytometry was used. Nystatin was used to block caveolae/lipid-mediated endocytosis, EIPA to block micropinocytosis, cytochalasin D to block actin polymerization and micropinocytosis and chlorpromazine to block clathrin-mediated endocytosis.

human LRP1, sequence (Q07954 20-4544): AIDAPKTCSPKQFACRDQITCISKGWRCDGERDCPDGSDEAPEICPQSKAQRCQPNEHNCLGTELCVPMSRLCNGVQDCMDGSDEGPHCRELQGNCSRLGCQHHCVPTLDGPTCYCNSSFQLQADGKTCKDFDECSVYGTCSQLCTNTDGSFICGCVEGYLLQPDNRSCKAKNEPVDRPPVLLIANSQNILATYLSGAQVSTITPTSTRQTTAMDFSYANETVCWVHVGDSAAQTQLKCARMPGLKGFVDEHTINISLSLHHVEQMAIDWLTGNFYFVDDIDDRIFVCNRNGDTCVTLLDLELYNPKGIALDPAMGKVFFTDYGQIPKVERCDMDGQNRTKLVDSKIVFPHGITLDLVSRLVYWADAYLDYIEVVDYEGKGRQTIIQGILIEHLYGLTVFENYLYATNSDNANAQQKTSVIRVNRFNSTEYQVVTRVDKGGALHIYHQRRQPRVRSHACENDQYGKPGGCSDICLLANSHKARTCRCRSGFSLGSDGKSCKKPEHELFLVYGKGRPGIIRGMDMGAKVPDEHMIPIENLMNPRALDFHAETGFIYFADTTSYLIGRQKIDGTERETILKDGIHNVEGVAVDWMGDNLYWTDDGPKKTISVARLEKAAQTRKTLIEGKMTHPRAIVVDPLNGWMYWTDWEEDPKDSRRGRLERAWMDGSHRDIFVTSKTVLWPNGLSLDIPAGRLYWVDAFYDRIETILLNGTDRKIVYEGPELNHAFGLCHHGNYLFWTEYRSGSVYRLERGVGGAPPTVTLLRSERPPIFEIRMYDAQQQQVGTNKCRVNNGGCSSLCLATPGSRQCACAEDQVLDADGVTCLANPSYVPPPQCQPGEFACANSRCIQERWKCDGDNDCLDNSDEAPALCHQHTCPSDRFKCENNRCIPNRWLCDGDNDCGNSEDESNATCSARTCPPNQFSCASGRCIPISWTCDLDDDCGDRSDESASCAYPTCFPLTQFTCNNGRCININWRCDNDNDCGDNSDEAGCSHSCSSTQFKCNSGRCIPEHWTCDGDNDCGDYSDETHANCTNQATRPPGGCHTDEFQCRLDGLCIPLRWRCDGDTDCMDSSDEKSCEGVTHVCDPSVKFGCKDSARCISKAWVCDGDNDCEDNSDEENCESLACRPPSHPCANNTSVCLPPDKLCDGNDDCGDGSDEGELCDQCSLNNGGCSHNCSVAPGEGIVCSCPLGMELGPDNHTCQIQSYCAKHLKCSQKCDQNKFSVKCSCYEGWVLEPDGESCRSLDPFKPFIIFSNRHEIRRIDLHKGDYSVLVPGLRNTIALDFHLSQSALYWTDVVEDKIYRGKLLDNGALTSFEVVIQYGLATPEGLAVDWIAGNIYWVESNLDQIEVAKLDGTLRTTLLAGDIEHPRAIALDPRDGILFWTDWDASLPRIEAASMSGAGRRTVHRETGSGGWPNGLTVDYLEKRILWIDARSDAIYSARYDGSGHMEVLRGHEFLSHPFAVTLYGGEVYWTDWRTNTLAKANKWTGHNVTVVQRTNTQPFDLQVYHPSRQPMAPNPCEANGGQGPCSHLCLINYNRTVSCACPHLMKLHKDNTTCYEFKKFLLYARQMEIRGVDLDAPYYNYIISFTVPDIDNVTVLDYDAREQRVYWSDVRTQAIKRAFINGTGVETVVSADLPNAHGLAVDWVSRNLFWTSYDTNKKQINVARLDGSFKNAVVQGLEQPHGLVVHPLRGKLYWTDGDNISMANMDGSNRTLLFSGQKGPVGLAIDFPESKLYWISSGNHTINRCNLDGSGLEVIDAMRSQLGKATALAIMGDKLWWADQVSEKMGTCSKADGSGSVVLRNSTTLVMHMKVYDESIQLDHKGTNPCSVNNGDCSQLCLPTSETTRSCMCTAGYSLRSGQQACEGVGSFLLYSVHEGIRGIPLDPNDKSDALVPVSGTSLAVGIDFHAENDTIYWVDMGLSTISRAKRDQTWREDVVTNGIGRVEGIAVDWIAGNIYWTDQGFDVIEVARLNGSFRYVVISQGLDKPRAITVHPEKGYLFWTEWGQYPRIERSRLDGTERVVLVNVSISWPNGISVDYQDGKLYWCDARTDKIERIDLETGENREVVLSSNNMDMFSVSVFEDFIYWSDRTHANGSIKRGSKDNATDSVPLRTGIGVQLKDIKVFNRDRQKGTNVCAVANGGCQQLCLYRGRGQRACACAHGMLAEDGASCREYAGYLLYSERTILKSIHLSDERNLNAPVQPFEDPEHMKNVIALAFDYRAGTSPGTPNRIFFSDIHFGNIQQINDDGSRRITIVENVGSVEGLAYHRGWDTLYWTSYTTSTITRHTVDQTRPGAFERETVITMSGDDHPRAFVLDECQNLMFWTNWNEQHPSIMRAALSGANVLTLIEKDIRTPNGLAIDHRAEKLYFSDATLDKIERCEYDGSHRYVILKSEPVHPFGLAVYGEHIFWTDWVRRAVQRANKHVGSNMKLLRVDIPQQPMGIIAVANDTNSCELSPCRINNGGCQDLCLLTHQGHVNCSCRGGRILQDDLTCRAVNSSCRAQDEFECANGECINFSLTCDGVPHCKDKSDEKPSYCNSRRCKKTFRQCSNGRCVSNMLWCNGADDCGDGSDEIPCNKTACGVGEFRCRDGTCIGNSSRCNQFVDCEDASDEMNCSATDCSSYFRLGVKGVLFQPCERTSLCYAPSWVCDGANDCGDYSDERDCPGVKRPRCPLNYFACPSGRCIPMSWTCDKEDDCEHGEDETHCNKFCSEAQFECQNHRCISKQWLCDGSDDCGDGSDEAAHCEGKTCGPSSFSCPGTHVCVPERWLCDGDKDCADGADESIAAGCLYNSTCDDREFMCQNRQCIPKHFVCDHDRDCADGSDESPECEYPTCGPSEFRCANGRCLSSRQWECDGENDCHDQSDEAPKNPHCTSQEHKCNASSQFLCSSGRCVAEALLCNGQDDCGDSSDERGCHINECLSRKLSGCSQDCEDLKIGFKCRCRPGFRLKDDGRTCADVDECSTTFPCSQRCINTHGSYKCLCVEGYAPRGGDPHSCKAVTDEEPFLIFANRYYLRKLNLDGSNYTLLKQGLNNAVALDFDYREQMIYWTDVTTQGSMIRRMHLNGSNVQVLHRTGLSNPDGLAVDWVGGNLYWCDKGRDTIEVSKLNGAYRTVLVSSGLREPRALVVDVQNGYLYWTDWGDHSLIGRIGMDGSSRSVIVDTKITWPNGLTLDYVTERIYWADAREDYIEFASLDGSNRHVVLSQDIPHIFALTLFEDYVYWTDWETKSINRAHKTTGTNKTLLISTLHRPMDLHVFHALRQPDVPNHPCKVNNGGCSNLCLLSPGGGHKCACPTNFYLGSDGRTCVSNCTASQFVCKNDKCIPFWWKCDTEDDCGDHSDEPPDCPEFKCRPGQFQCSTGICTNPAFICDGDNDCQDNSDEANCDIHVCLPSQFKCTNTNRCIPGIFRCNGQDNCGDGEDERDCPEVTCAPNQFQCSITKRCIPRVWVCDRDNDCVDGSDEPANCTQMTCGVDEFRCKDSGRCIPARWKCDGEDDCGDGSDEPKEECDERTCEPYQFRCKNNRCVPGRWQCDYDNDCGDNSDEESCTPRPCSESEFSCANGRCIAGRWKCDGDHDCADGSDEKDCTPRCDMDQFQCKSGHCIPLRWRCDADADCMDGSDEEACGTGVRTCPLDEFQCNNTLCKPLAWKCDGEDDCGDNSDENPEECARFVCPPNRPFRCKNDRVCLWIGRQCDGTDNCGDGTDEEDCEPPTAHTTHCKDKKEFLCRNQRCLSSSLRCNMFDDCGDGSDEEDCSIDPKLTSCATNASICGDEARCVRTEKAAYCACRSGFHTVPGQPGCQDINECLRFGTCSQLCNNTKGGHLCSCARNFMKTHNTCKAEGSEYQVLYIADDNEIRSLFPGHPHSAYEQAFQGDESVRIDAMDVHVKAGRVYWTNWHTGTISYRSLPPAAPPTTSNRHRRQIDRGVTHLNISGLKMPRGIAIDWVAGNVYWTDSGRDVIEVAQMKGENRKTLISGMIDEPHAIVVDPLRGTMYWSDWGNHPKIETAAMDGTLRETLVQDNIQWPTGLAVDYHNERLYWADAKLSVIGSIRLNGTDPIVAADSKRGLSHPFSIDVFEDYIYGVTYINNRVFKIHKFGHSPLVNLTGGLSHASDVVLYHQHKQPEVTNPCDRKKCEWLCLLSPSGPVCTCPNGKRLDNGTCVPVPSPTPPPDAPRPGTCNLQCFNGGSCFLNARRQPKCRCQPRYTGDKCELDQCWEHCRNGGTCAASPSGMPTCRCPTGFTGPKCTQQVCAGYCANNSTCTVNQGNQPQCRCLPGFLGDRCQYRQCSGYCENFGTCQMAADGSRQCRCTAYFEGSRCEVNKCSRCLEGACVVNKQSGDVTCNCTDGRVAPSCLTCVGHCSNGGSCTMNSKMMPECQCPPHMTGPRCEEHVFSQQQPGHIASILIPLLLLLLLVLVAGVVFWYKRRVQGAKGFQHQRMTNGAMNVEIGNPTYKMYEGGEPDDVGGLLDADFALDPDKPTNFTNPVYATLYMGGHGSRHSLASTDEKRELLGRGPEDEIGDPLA

For the compound `CC(Cc1ccccc1)(NC(=O)CN)c1ccccc1` (stereo not drawn) [remacemide], the “results in Huntington's disease” value in [1] is listed as “preliminary positive results”. On to `O=C(O)CN(CCN(CC(=O)O)CC(=O)O)CC(=O)O` [EDTA], for which the “inhibition of CP-neutravidin binding to LRP1” value at human LRP1 is on record as “inhibited”.

For “FAM-Ahx-SRRVISRAKLAAAL-OH ({FAM-Ahx}-SRRVISRAKLAAAL-OH) [FAM-Cerepep]”, in the data set on Neuro2A cells [2], the “binding and uptake of FAM-peptide” value was “bound to and was taken up by Neuro2A cells”. In addition, the detection in brain result in the data set with mouse brain was “could be detected in the brain tissues”. Further, in the data set with mature neurons, the “association with neurons (NeuN)” value is “could be detected associated with neurons in the brain tissues”. For the same compound, the “association with astrocytes (GFAP)” value in the data set on astrocytes was “could be detected associated with astrocytes in the brain tissues”. Further, the “association with microglia (CD11b)” value in the data set on microglia is on record as “could be detected associated with microglia in the brain tissues”. For `COC(=O)C(c1ccccc1)C1CCCCN1` (stereo not drawn) [methylphenidate], the “treatment of ADHD” value in the data set with ADHD / ASD subjects (ADHD) was “safe and effective”. Further, in the data set on ADHD / ASD subjects (children with ASD), the “treatment of hyperactivity in children with ASD” value is recorded as “effectively treat hyperactivity in children with ASD”.

With “FAM-RPARPAR-OH ({FAM}-RPARPAR-OH) [reference compound]”, the “binding and uptake of FAM-peptide” value in the data set on Neuro2A cells [2] is “only background binding”.

Consider `CC(C)[C@H](NC(=O)[C@H](CS)NC(=O)CCCCCNC(=O)c1ccc2c(c1)C(=O)OC21c2ccc(O)cc2Oc2cc(O)ccc21)C(=O)N[C@@H](Cc1ccc(O)cc1)C(=O)N[C@H](C(=O)N[C@@H](CS)C(=O)N[C@@H](CC(N)=O)C(=O)NCC(=O)O)[C@@H](C)O` [CVYTCNG, reference compound] ({5FAM-Ahx}-CVYTCNG-OH), for which, in data set [3], the “detection in brain parenchyma” value is “not detectable in the brain parenchyma; also recorded: no targeting to brain parenchyma” and the “detection/targeting in GBM” value is “binding was detected in the GBM”.

As for `NC12CC3CC(CC(C3)C1)C2` [amantadine], the “results in Huntington's disease” value in data set [1] is “preliminary positive results”. Consider “RAP: Receptor Associated Protein, inhibitor of several LDL-receptor proteins”, for which, in the data set with human LRP1, the “inhibition of CP-neutravidin binding to LRP1” value was “inhibited”. For the same compound, the “effect on AgNP-Cerepep binding to P3 cells” value with P3 human stem cells is reported as “reduced”.

Take `Nc1nc2ccc(OC(F)(F)F)cc2s1` [riluzole, 2-amino-6-(trifluoromethoxy)benzothiazole]: the “survival time in subjects with ALS” value is recorded as “borderline significance with respect to survival time” in the data set with ALS subjects and “improved survival time in subjects with ALS” in the data set with ALS subjects (listed as Riluzole). As for `CC1C=CC=CCCC=CC=CC=CC=CC(OC2OC(C)C(O)C(N)C2O)CC2OC(O)(CC(O)C(O)CCC(O)CC(O)CC(O)CC(=O)OC(C)C(C)C1O)CC(O)C2C(=O)O` (stereo not drawn) [Nystatin], in the data set with Neuro2A cells [4], the “inhibitory effect on the uptake of CP-AgNPs” value is “did not have a statistically significant inhibitory effect”.

These data come from patent publication US20260347399A1, “BRAIN PENETRATING PEPTIDES AND METHODS OF USE” (priority 2022, published 2026).
